In patent US8569356B2, “Cyclin dependent kinase inhibitors” (University of Florida Research Foundation, Inc., priority 2005, dated 2013):
Entries after “also recorded” stand apart in the source; their conditions may differ.

Columns and labels:
PC3 prostate tumor cells = assay: Mouse xenograft tumor model, PC3; format: in vivo, SCID mice; settings: intratumoral, 1:50 dilution (2 mM), compared with 1:50 DMSO in PBS in two controls
Procedure: A compound of the invention (Compound 1) was tested in a mouse xenograft tumor model to determine whether the compound can inhibit tumor growth in vivo.
SCID mice were subcutaneously implanted with PC3 prostate tumor cells in the flank and were administered intratumorally with controls (DMSO) or a test compound.
The two control animals were sacrificed when the total tumor volume (L×W×H) exceeded 1.5 cc. The treated animal was sacrificed because a small but significant skin ulceration was developing over the tumor.

[1] = test system: prostate cancer cell line, Gs-α; assay: Matrigel cell invasion assay; format: cell-based; settings: Matrigel invasion chambers, 36 h
Procedure: A cell invasion assay was performed on an aggressive prostate cancer cell line, Gs-α, to determine the effects of selected compounds that inhibit cell proliferation.
The experiment was performed in six-well Matrigel two-tier invasion chambers (Collaborative Biomedical Products, Bedford, Mass., USA), using a protocol similar to that used successfully by others (see, e.g., Chien J, Wong E, Nikes E et al., Oncogene 1999; 18: 3376-3382, incorporated herein by reference). […]
While the membranes were still wet in culture dishes, the GFP-positive cells on the entire membrane were counted under fluorescent illumination. […] The total number of cells on the entire gel was counted. The data from invasion assay were corrected for cell growth during experimental periods as follows: the experimental cells were plated at a density of 10^5 cells per well in six-well control inserts in chemoattractant medium and increase in cell number were determined after 48 h. […] The results were expressed as mean±standard deviation. […]
Significance of differences in Percent Invasion according to treatment (or transfection of Metafectene vehicle alone) were assessed by Student's t-test.

[2] = test system: BT549 breast cancer cells; assay: 3H-thymidine incorporation assay, BT549; format: cell-based, human
Procedure: FIG. 4. Compounds #1, #7, and #11 inhibit proliferation of BT549 breast cancer cells. BT549 cells were treated for 24 hours with the indicated “Pocket #1” compounds. The effect of treatment on cell proliferation was quantitated by measuring the amount of ^3H-Thymidine incorporated into cellular DNA over a two hour time interval. The results are presented as the average of triplicate determinations ±standard deviation.
FIG. 5. Compounds predicted to bind to “Pocket #2” inhibit proliferation of BT549 breast cancer cells. BT549 cells were treated for 24 hours with the indicated “Pocket #2” compounds. The effect of treatment on cell proliferation was quantitated by measuring the amount of ^3H-Thymidine incorporated into cellular DNA over a two hour time interval. The results are presented as the average of triplicate determinations ±standard deviation.
Additional ^3H-thymidine incorporation assays were performed to determine whether the “Pocket #2” binding drugs (see Table 2) inhibit cell proliferation at concentrations lower than 100 μM.

[3] = test system: multiple human cancer cell lines; settings: NCI screen, read-out: average 50% inhibitory concentration (IC50), proliferation; cited from earlier work
PC-3 tumor cells = assay: PC-3 tumor in mice, intratumoral injection with CD44 RNA interference; format: in vivo; settings: combined with CD44 RNA interference, after 11 days of injection, three treated animals
Procedure: The effect of 4-tert-Butyl-2-nitroaniline when combined with CD44 RNA interference was therefore investigated.
Seven-wk-old mice (Jackson Laboratory, Bar Harbor, Me.) were injected in the right flank with 2×10^6 PC-3 tumor cells in 500 μl liquid Matrigel. […] By 14 days after injection, a tumor mass was palpable and at 27 days, 4-tert-Butyl-2-nitroaniline and CD44 RNAi therapy commenced. Gene transfection was controlled for quantitation by injecting a constant 10 μg of vector. This approach involved mixing volume of DNA containing 10 μg of pU6BS (and subsequently pTracer) plasmid having the CD44 RNAi construct with 10 μl of Metafectene before injection into the tumor. Both Metafectene and DNA were diluted separately in 100 μl of sterile serum-free RPMI before mixing (see, e.g., Iczkowski K A, Omara-Opyene A L, and Klösel R., Molecular Biotechnology 2004; 28:97-103). The mixture was then allowed to stand for 30 minutes before injection to allow the formation of Metafectene:DNA complexes.
Intra-tumoral injection was performed five times weekly, angling the needle at different areas of the tumor during a given injection as well as varying the injection site for each injection occasion. Control animals were injected with 100 μl consisting of 50 μl empty vector/medium plus 50 μl of Metafectene.

Cdk4 [4] = target: T1, Cdk4 (Homo sapiens, UniProt P11802); assay: Immunofluorescence microscopy of Cdk4 distribution; format: cell-based
T1 construct: endogenous in cells; host or cells: BT549
T1 sequence (P11802 whole entry): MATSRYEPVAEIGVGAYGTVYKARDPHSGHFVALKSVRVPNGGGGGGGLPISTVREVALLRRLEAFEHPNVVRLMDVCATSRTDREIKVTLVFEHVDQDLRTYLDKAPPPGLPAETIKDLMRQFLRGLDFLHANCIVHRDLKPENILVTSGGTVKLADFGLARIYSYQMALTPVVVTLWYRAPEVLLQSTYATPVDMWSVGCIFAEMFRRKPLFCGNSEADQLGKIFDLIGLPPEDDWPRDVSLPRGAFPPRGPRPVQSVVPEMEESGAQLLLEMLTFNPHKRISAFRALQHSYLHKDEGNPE
Text: (§1) It appears that compounds of the invention can cause redistribution of Cdk1, Cdk2, and Cdk4 in cells.

Cdk1 [5] = target: T2, Cdk1 (Homo sapiens, UniProt P06493); assay: Immunoblot of cellular Cdk1 level in BT549 cells; format: cell-based; settings: 24 or 48 hours, time- and dose-dependent
T2 construct: endogenous in cells; host or cells: BT549
T2 sequence (P06493 whole entry): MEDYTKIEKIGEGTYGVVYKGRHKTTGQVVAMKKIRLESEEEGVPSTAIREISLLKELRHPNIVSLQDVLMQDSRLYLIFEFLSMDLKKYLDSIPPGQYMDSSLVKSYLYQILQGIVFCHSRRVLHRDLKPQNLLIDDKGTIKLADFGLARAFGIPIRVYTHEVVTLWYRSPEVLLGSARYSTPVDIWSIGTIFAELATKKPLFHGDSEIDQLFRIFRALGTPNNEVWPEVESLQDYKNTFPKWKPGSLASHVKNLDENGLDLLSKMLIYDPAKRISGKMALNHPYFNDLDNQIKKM
Procedure: (§2) BT549 cells were treated with the indicated Pocket #1 compounds for the indicated intervals. Cell lysates were prepared and the amounts of Cdk1, Cdk2, and Cdk4 were determined by immunoblot. Actin staining serves as a loading control. DMSO serves as a vehicle control.
(§3) Human breast cancer BT549 cells were treated as indicated for 24 or 48 hours with either 0.2% DMSO as a vehicle control, or compounds #3, #4, and #7 at the indicated concentrations. Cell lysates were prepared, normalized for protein content, resolved by SDS-PAGE and the proteins transferred to nitrocellulose. Levels of Cdk1, Cdk2, and Cdk4 were measured using primary antibodies specific for these proteins, followed by alkaline-phosphatase-conjugated secondary antibodies and colorimetric detection using the substrate NBT/BCIP.

Cdk1 [6] = target: T2, Cdk1; assay: Immunofluorescence microscopy of Cdk1 distribution; format: cell-based
Text: as §1

Cdk2 [7] = target: T3, Cdk2 (Homo sapiens, UniProt P24941); assay: Immunoblot of cellular Cdk2 level in BT549 cells; format: cell-based; set-up: endogenous in cells; host or cells: BT549; settings: 24 or 48 hours, time- and dose-dependent
Procedure: as §2, §3

Cdk4 [8] = target: T1, Cdk4; assay: Immunoblot of cellular Cdk4 level in BT549 cells; format: cell-based; settings: 24 or 48 hours, time- and dose-dependent
Procedure: as §2, §3

DU145 cells = assay: 3H-thymidine incorporation assay, DU145; format: cell-based, human; settings: 100 μM, 24 hours
Text: (§4) FIG. 2. In silico molecular docking and preliminary analysis of potential Cyclin/Cdk2 inhibitors. (A) Cyclin A/Cdk2/p27 complex with spheres docked into the binding pocket (Pocket #1) and the pocket enclosed in a scoring grid (rectangular box). (B) Binding cleft shown filled with spheres, the top 10 hits superimposed into the binding pocket (All Hits), and the predicted mode of binding of individual hits in the Cyclin A/Cdk2/p27 pocket (Hits #3-10). (C) NMuMG (black bars) or DU145 cells (open bars) were treated for 24 hours with 100 μM of the indicated compounds and ^3H-thymidine incorporation was measured to assess rates of cell proliferation. Roscovitine is a known Cdk inhibitor and was included as a positive control. DMSO (0.1%) was included as a vehicle control. (D) Morphological change induced by 100 μM Hit #10 in NMuMG and DU145 cells after treatment for 24 hours.
(§5) Labeled thymidine (^3H-thymidine) incorporation assays were used to screen compounds at a concentration of 100 μM using mouse mammary epithelial cells and the human prostate cancer cell line DU145.
Human prostate cancer DU145 cells were plated at 30,000 cells per well in 24-well plates and allowed to attach for 24 hours. The cells were treated for 24 hours with either 100 μM of the indicated compounds, 0.1% DMSO as a vehicle control, or left untreated. The cells were pulsed with ^3H-thymidine for two hours. The cells were fixed in 10% trichloroacetic acid and washed a total of three times with 10% trichloroacetic acid. The ^3H-thymidine-labeled DNA was dissolved in 0.2% NaOH, mixed with scintillation fluid, and the associated radioactivity quantitated using a scintillation counter. These experiments were performed in triplicate and the results are presented as the average thymidine incorporation±standard deviation. […]

Cdk2 [9] = target: T3, Cdk2; assay: Immunofluorescence microscopy of Cdk2 distribution; format: cell-based; set-up: endogenous in cells; settings: MDA-MB-468 breast cancer cells, 24 hours
Procedure: FIG. 6. Immunofluorescence microscopy of cellular distribution of Cdks in the absence (upper panels) and presence (lower panels) of a compound of the invention. MDA-MB-468 breast cancer cells were treated with the indicated concentration of pocket 1 compound #7 for 24 hours. Immunofluorescence microscopy was performed using an antibody to Cdk2. […] These aggregates are most apparent at sites of cell-cell contact.
as §1

NMuMG cells = assay: 3H-thymidine incorporation assay, NMuMG; format: cell-based, mouse; settings: 100 μM, 24 hours
Text: as §4, §5
Seven of the molecules identified in Example 1 as having the top estimated binding energies (Hits/Compounds 3, 4, 6, 7, 8, 9, and 10) were obtained and tested for their ability to induce cell cycle arrest of mouse mammary NMuMG and DU145 human prostatic carcinoma cell lines in ^3H-thymidine incorporation assays (FIG. 2C). […] Thus at least five of the ten top-ranked compounds are cell permeable and induce an appreciable arrest of cancer cell proliferation.

For `Cc1ccc(C(=O)/C=C/c2ccccc2)s1` [Compound 1], which tumor growth (PC3 prostate tumor cells) is on record?
The tumor growth was “markedly reduced tumor growth”.

And the “cell invasiveness in vitro” value [1]?
The value was “inhibit cell invasiveness”.

And the “potency compared with Compound 7” value [2]?
Its value is “more potent than Compound 7”.

What about the “effective concentration for inhibition of proliferation” value ([2]; 24 hours) of the same compound?
Its value is “low micromolar concentrations”.

And the “inhibition of proliferation (3H-thymidine incorporation)” value ([2]; 24 hours)?
Its value is “inhibit the proliferation”.

For `COc1ccc2oc3cccc(NN(C)C)c3c(=O)c2c1` [Compound 2, 1-(N′,N′-Dimethyl-hydrazino)-7-methoxy-xanthen-9-one], which IC50 [3] is on record?
Its IC50 is 12 µM.

Which “decrease of tumor volume” value (PC-3 tumor cells) does the source give for `CC(C)(C)c1ccc(N)c([N+](=O)[O-])c1` [Compound 3, 4-tert-Butyl-2-nitroaniline] here?
The value was “more than 50%”.

Which Cdk4 localization (Cdk4 [4]) does the source give for `COc1ccc(C(C#N)=Cc2ccccn2)cc1` [Compound 7, 2-(4-methoxyphenyl)-3-pyridin-2-yl-prop-2-enenitrile] here?
Its Cdk4 localization is “aggregates appear on top of the nuclei”.

And the “cellular level of Cdk1” value (Cdk1 [5])?
The value was “Decrease the Cellular Levels”.

And the Cdk1 localization (Cdk1 [6])?
Its Cdk1 localization is “aggregates appear primarily at cell-cell junctions”.

What about the “cellular level of Cdk2” value (Cdk2 [7]) of the same compound?
Its value is “Decrease the Cellular Levels”.

What about the “cellular level of Cdk4” value (Cdk4 [8]) of the same compound?
Its value is “Decrease the Cellular Levels”.

What about the “inhibition of proliferation (3H-thymidine incorporation)” value ([2]; 24 hours) of the same compound?
Its value is “inhibit the proliferation”.

And the “inhibition of cell proliferation (3H-thymidine incorporation)” value (shortened to “inhibition of cell proliferation”) (DU145 cells)?
The value was “significantly inhibited proliferation”.

And the Cdk2 localization (Cdk2 [9])?
The Cdk2 localization was “aggregates appear primarily at cell-cell junctions; also recorded: change in Cdk2 localization consistent with aggregation”.

And the “inhibition of cell proliferation” value (NMuMG cells)?
The value was “significantly inhibited proliferation”.

For `c1ccc(OSOc2ccccc2)cc1` [Compound 10], which “inhibition of cell proliferation” value (DU145 cells) is on record?
Its value is “significantly inhibited proliferation”.

What about the morphological change (DU145 cells) of the same compound?
The morphological change was “dramatic morphological change”.

And the “inhibition of cell proliferation” value (NMuMG cells)?
Its value is “significantly inhibited proliferation”.

What about the morphological change (NMuMG cells) of the same compound?
Its morphological change is “dramatic morphological change”.

With `O=C(N/N=C\c1cc(Br)ccc1O)N/N=C/c1cc(Br)ccc1O` [VDW9] as the compound, how does the “inhibition of proliferation (3H-thymidine incorporation)” value ([2]; 2 μM, 24 hours) read?
Its value is “inhibited proliferation”.

And the “inhibition of proliferation (3H-thymidine incorporation)” value ([2]; 10 μM, 24 hours)?
Its value is “inhibited proliferation”.
